# Source: PMC3976407, “Inhibition of Fatty Acid Binding Proteins Elevates Brain Anandamide Levels and Produces Analgesia” (PLoS ONE, 2014)
# Legend:
# HeLa cells = assay: Cytotoxicity, MTT colorimetric assay; assay type: cell-based; details: 24 hr incubation, n = 3
# Description: Cytotoxicity of the FABP inhibitors SBFI26 and BMS309403 were examined using the MTT [3-(4,5-dimethylthiazol-2-yl)-2,5 diphenyl tetrazolium bromide] colorimetric assay. HeLa cells were seeded into 96-well plates (15,000 cells/well) and incubated for 24 hours at 37°C in DMEM supplemented with 10% FBS, penicillin (100 U/mL) and streptomycin (100 μg/mL). The cells were subsequently washed with PBS and treated with serum-free DMEM containing 10 nM to 1 mM SBFI26, BMS309403, or 5 mM hydrogen peroxide as a positive control. Following a 24 hr incubation, the cells were washed with PBS and treated with MTT (0.5 mg/mL in PBS) for 4 hrs. The cells were subsequently solubilized using DMSO and the absorbance was read at 562 nm in a microplate reader.
# FAAH = target: T1, FAAH (Mus musculus, UniProt O08914); assay: AEA hydrolysis by brain and liver homogenates after injection of inhibitor; assay type: biochemical; details: mouse brain and liver homogenates harvested 60 min after 20 mg/kg, i.p.; 30 μM [14C]AEA
# T1 construct: from tissue; host or cells: mouse brain and liver homogenates
# T1 sequence (O08914 1-579): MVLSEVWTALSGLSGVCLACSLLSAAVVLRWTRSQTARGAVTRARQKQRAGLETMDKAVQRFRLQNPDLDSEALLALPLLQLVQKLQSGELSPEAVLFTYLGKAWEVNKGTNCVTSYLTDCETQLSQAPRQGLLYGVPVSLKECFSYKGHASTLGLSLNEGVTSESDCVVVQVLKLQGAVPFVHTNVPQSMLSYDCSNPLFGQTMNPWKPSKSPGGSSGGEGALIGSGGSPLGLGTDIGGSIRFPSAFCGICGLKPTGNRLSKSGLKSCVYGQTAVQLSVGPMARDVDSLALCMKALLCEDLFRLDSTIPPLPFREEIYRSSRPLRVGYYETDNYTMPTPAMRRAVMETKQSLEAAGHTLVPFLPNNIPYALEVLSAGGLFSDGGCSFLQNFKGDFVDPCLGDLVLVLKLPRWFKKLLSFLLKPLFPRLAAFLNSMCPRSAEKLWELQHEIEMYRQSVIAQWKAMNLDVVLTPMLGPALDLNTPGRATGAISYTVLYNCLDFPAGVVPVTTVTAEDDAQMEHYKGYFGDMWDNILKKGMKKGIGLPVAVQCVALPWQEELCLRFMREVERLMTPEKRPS
# Description: AEA and 2-OG hydrolysis was determined using modified protocols to those described previously, [35]. Mice were injected with inhibitors (20 mg/kg, i.p.) and the brains and livers were harvested 60 min later. The tissue homogenates were subsequently incubated with 30 μM [^14C]AEA or 10 μM [^3H]2-OG for 30 min. Reactions were stopped with two volumes of chloroform:methanol (1∶1) and the methanol phase was counted using a Beckman LS6500 scintillation counter.
# [1] = test system: rectal temperature in mice; assay: Rectal temperature; assay type: in vivo, mouse; details: 20 mg/kg, i.p., baseline vs 90 min
# Description: Rectal temperature was measured at baseline and 90 min following vehicle or drug administration, by inserting a thermocouple probe 1.5 cm into the rectum and the temperature was read using a thermocouple meter (Kent Scientific).
# [2] = test system: acetic acid-induced writhing in mice; assay: Acetic acid-induced writhing; assay type: in vivo, mouse
# Description: Mice were acclimated to the laboratory environment for at least two hours and were habituated to the testing chamber for 30 min prior to acetic acid challenge. SBFI26, SBFI50, SBFI60, and SBFI62 (20 mg/kg) were administered via the subcutaneous route 60 min before acetic acid. Rimonabant, SR144528, GW6471, and naloxone were given 10 min before the inhibitors via the subcutaneous route. The mice subsequently received an i.p. injection of acetic acid (0.6% in sterile saline, 10 μl/g) and were placed in observation chambers. Abdominal stretches (marked by extension of the body and hind limbs) were counted for 20 min starting at 5 min post-injection.
# FABP3 = FABP3 (Homo sapiens, UniProt P05413); assay: NBD-stearate fluorescence displacement binding
# FABP3, sequence (P05413 whole entry, species assumed): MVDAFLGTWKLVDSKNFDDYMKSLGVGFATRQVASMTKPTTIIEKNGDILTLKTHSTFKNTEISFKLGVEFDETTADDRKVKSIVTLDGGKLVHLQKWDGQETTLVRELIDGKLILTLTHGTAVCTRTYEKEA
# Description: Inhibitory constant (Ki) values were elucidated utilizing NBD-stearate fluorescence displacement as described previously [9], [31]. The tests were performed in 96-well plates containing inhibitors (0.1 – 50.0 μM), FABP, and NBD-stearate. Fluorescence intensity was measured with a FLUOstar OPTIMA spectrofluorometer with excitation and emission wavelengths of 460 and 544 nm, respectively.
# [3] = test system: carrageenan-induced thermal hyperalgesia and paw edema in mice; assay: Carrageenan-induced paw edema and thermal hyperalgesia; assay type: in vivo, mouse; details: 20 mg/kg, i.p.
# Description: Paw edema was induced by injecting 1% λ-carrageenan (20 μl, in sterile saline) into the plantar surface of the left hind paw using a 30 gauge needle attached to a glass syringe (Hamilton Company). Paw diameters were measured before carrageenan injection and 4 or 24 hours after injection using digital electronic calipers (Fisher) and expressed to the nearest ± 0.01 mm. SBFI26, SBFI50, SBFI60, and SBFI62 were dissolved in DMSO:cremophor-EL:saline (4% DMSO:10% Cremophor-EL) and administered (20 mg/kg, i.p.) 60 min prior to injection of carrageenan. Receptor antagonists were injected 10 min before the inhibitors. Rimonabant and SR144528 (3 mg/kg, i.p.) were dissolved in ethanol:cremophor-EL:saline (1∶1∶18) while GW6471 (4 mg/kg, i.p.) was dissolved in DMSO:cremophor-EL:saline (2% DMSO:5% Cremophor-EL). Edema is reported as the change in paw diameter at 24 hr compared to the baseline. Thermal hyperalgesia was measured using the Hargreaves plantar apparatus (Ugo Basile) as previously reported.
# CB1 = test system: CB1; design: method as in PMID 23236415; details: previously demonstrated ref 31; cited from earlier work
# [4] = test system: formalin-induced nociception in mice; assay: Formalin test; assay type: in vivo, mouse; details: 20 mg/kg, i.p.
# Description: Mice were habituated to the observation chamber (Plexiglas box, 25 cm×25 cm×25 cm) for 30 min prior to formalin injection. Mice were administered FABP inhibitors 60 min prior to formalin. The animals subsequently received an injection of formalin (2.5% in saline, 20 μl) into the plantar surface of the right hind paw using a 30 gauge needle and were immediately placed back into the observation chamber and nocifensive behavior (time spent licking or biting the paw) was recorded for 60 min. Nocifensive behavior was scored during the first phase (0–5 min) and the second phase (∼15–45 min) of the formalin test.
smiles,measurement,setting,value
"O=C(O)C1C(c2ccccc2)C(C(=O)Oc2cccc3ccccc23)C1c1ccccc1 (stereo not drawn) [SBFI26, alpha-2,4-diphenylcyclobutane-1,3-dicarboxylic acid mono-1-naphthyl ester]",Cytotoxicity _50 values,HeLa cells,31.1 ± 4.1 µM
same,Inhibition of AEA hydrolysis,FAAH,did not inhibit
same,Rectal temperature,[1],does not reduce
same,Effect upon acetic acid-induced writhing,"[2]; 20 mg/kg, subcutaneous, 60 min before acetic acid",significantly reduced
same,Antinociceptive effects in the acetic acid test after pretreatment with PPARα antagonist GW6471,[2]; GW6471 4 mg/kg,blocked
same,Antinociceptive effects in the acetic acid test after pretreatment with CB2 antagonist SR144528,[2]; SR144528 3 mg/kg,failed to reverse
same,Dose of near maximal efficacy in acetic acid writhing,[2]; dose response analysis,20 mg/kg
same,Antinociceptive effects in the acetic acid test after pretreatment with opioid antagonist naloxone,[2]; naloxone 2 mg/kg,failed to reverse
same,Antinociceptive effects in the acetic acid test after pretreatment with CB1 antagonist rimonabant,[2]; rimonabant 3 mg/kg 10 min before inhibitor,completely blocked
same,Ki,FABP3,3.9 ± 0.7 µM
same,Effect upon carrageenan-induced paw edema,[3],reduced
same,Effect upon carrageenan-induced thermal hyperalgesia,[3],reduced
same,Activation of CB1,CB1,does not activate
same,Effect upon first phase of formalin-induced nociception,[4]; first phase 0–5 min,reduced
same,Effect upon second phase of formalin-induced nociception,[4]; second phase ∼15–45 min,reduced
